Earlier results, collected in patent US9808437B2, “Monounsaturated fatty acid compositions and use for treating atherosclerosis” (BURKE & BOYER NYC, priority 2014, dated 2017).

System: ApoE-deficient mice
Details: 20 mg/kg/day; control 21.9 ± 2.9; P<0.05

For `CC(C)c1nc(N(C)S(C)(=O)=O)nc(-c2ccc(F)cc2)c1/C=C/[C@@H](O)C[C@@H](O)CC(=O)O` [Rosuvastatin], the “Aortic Lesion” value is listed as 11.9 ± 1.9 %.
